Laboratory results: US10933141B2, “Formulations with reduced degradation of polysorbate” (Genentech, Inc., priority 2015, dated 2021)
“Also recorded” adds a separate entry of the source.

How the values were obtained:
[1] = Oxidative PS20 degradation with AAPH, PS20 by RP-ELSD; assay type: physicochemical; details: 15% (w/v) excipient; 5 mM AAPH at 40° C. for 24 hours; n=3
Protocol: Polysorbate concentration was determined using reverse phase ultra-performance liquid chromatography using evaporative light scattering detection (RP-ELSD). Samples were analyzed using an Agilent 1100 series high performance liquid chromatography system (HPLC) fitted with a Waters Oasis MAX cartridge column (20×2.1 mm, 30 μm particle size). The HPLC system was set up with a switching valve directing column flow-through to either waste or a Varian 380-LC evaporative light scattering detector set to 100° C. The mobile phases consisted of 2% formic acid in water (Pump A) and 2% formic acid in isopropanol (Pump B). […] In order to quantitate the PS20 concentration, a standard curve was generated by injecting 20 μL of solutions containing between 0% w/v and 0.4% w/v PS20. For excipients which affected the migration time of PS20 through the column, PS20 standard curve solutions containing the relevant excipient were included in the analysis to facilitate accurate quantitation.
The ability of cyclodextrins to inhibit oxidative PS20 degradation was evaluated using 2,2′-Azobisisobutyramidinium (AAPH), which has been shown previously to degrade PS20 (Borisov et al., J. Pharm. Sci. 104:1005-1018 (2015)). […] Polysorbate 20 degradation was determined by RP-ELSD for samples oxidized with 5 mM AAPH at 40° C. for 24 hours containing no excipient (control), 15% (w/v) sucrose, and 15% (w/v) HP-β-CD.

[2] = target: T1, porcine pancreatic lipase (PPL) (Sus scrofa, UniProt P00591); experiment: Enzymatic degradation of PS20 by PPL, 4.5 hour digestion, PS20 by RP-ELSD; assay type: biochemical; details: for decrease in PS20: 0.02% PS20, pH 5.5, 15 μg/mL PPL 4.5 hours room temperature, excipient 15% w/v (cyclodextrins 106 mM); for inhibitory effect on enzymatic PS20 degradation (in words): 0.02% PS20, 15 μg/mL PPL 4.5 hours, excipient 15% w/v (methionine 10 mg/mL)
T1 construct: purchased Sigma Aldrich Inc. (St. Louis, Mo.)
T1 sequence (P00591 1-450): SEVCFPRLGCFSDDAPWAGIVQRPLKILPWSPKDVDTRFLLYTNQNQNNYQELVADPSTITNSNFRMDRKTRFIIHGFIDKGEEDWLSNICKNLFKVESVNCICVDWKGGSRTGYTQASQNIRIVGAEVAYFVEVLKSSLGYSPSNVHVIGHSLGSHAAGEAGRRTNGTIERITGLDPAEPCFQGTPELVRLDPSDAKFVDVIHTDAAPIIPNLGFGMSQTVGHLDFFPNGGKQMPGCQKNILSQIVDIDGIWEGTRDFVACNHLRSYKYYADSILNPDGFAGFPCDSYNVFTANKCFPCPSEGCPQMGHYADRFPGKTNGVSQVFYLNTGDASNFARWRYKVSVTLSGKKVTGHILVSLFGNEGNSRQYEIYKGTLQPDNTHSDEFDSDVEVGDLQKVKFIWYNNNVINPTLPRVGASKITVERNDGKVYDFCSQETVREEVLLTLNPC
Protocol: Polysorbate concentration was determined using reverse phase ultra-performance liquid chromatography using evaporative light scattering detection (RP-ELSD). Samples were analyzed using an Agilent 1100 series high performance liquid chromatography system (HPLC) fitted with a Waters Oasis MAX cartridge column (20×2.1 mm, 30 μm particle size). The HPLC system was set up with a switching valve directing column flow-through to either waste or a Varian 380-LC evaporative light scattering detector set to 100° C. The mobile phases consisted of 2% formic acid in water (Pump A) and 2% formic acid in isopropanol (Pump B). The pump gradient was isocratic at 10% pump B during equilibration, linear to 20% pump B for 1 minute, isocratic at 20% pump B for 2.4 minutes, linear to 100% pump B for 0.1 minutes, isocratic at 100% pump B for 1.1 minutes, linear to 10% pump B for 0.1 minutes, and finally isocratic at 10% pump B for 1.9 minutes. The switching valve directed column flow-through to waste at the beginning of every injection, and then directed flow to the detector after 2.4 minutes until the end of the gradient. In order to quantitate the PS20 concentration, a standard curve was generated by injecting 20 μL of solutions containing between 0% w/v and 0.4% w/v PS20.
Several excipients were tested for their ability to protect PS20 against enzymatic hydrolysis including HP-α-CD, HP-β-CD, HP-γ-CD, SBE-β-CD, PVP, PEG 1500, sucrose, and methionine. Solutions of each excipient in pH 5.5 buffer were prepared containing a final concentration of 0.02% PS20 after enzyme addition. The concentration of HP-α-CD, HP-β-CD, HP-γ-CD, and SBE-β-CD in the excipient solutions was 106 mM. […] The remaining excipients (PVP, PEG 1500, sucrose) were added to 15% w/v to match the % w/v of HP-β-CD. Samples were digested with 15 μg/mL PPL enzyme for 4.5 hours at room temperature, followed by 30 minutes of heat inactivation at 85° C. Each sample was analyzed for PS20 concentration using high performance liquid chromatography with an inline evaporative light scattering detector. Samples were then placed at 5° C. overnight to allow for the formation of particles and were analyzed for visible and subvisible particles as described previously.
The effect of the HP-β-CD concentration at different PS20 concentrations on the enzymatic degradation of PS20 was assessed to identify optimal concentrations for inhibition of enzymatic PS20 degradation. To evaluate the dependence of PS20 degradation on HP-β-CD concentration, the PS20 content was determined using RP-ELSD for triplicate samples containing different HP-β-CD concentrations at various PS20 concentrations. Samples containing 0.005% (FIG. 14A), 0.02% (FIG. 14B), 0.1% (FIG. 14C), and 0.4% PS20 (FIG. 14D) were digested using 15 μg/mL of PPL enzyme for 4.5 hours at room temperature in protein-free samples containing no excipient (control), 0, 0.5, 5, and 15% (w/v) HP-β-CD. PPL was added to each of the treatment solutions at a ratio of 75 […], with an equivalent volume of buffer added to the control solutions to determine the effect of HP-β-CD to polysorbate ratio on enzymatic degradation. Digestion was stopped by heat inactivation in an 85° C. water bath for 30 minutes. Each sample was analyzed for PS20 concentration using high performance liquid chromatography with an inline evaporative light scattering detector as described above. Samples were then placed at 5° C. overnight to allow for the formation of particles and placed on ice during analysis for visible and subvisible particles as described above.

Which “decrease in relative percent PS20” value [1] does the source give for `OC[C@H]1O[C@@](CO)(O[C@H]2O[C@H](CO)[C@@H](O)[C@H](O)[C@H]2O)[C@@H](O)[C@@H]1O` [sucrose, reference compound] here?
The value was 9.8%.

What about the “decrease in PS20” value [2] of the same molecule?
Its value is 58%.

And the “inhibitory effect on enzymatic PS20 degradation (in words)” value (shortened to “inhibitory effect”) [2]?
The value was “does not have an inhibitory effect”.

Which “decrease in relative percent PS20” value [1] does the source give for “2-hydroxypropyl-β-cyclodextrin [HP-β-CD]” here?
Its value is 3.6%.

What about the “HP-β-CD concentration required to fully inhibit PS20 degradation” value ([2]; 0.005% PS20, PPL 4.5 hours) of the same molecule?
Its value is 0.5%.

What about the “decrease in PS20” value [2] of the same molecule?
Its value is 7%.

What about the “inhibitory effect” value [2] of the same molecule?
Its value is “significant inhibitory effects; also recorded: able to prevent enzymatic degradation of PS20”.

And the “HP-β-CD concentration required to fully inhibit PS20 degradation” value ([2]; 0.1% PS20, PPL 4.5 hours)?
The value was 15%.

And the “HP-β-CD:PS20 ratio required to inhibit enzymatic PS20 degradation” value ([2]; PPL 4.5 hours, across PS20 and HP-β-CD concentrations)?
The value was at least 37.5 w/w.

What about the “PS20 remaining (Relative %)” value ([2]; [HP-β-CD]/[PS20] wt/wt ratio 0.5 (mole ratio 0.4), PPL 4.5 hours) of the same molecule?
Its value is 41.4 Relative %.

And the “PS20 remaining (Relative %)” value ([2]; [HP-β-CD]/[PS20] wt/wt ratio 1.25 (mole ratio 1.1), PPL 4.5 hours)?
Its value is 41.2 Relative %.

And the “PS20 remaining (Relative %)” value ([2]; [HP-β-CD]/[PS20] wt/wt ratio 2.5 (mole ratio 2.2), PPL 4.5 hours)?
Its value is 44.0 Relative %.

And the “PS20 remaining (Relative %)” value ([2]; [HP-β-CD]/[PS20] wt/wt ratio 5 (mole ratio 4.35), PPL 4.5 hours)?
Its value is 65.3 Relative %.

What about the “PS20 remaining (Relative %)” value ([2]; [HP-β-CD]/[PS20] wt/wt ratio 12.5 (mole ratio 10.9), PPL 4.5 hours) of the same molecule?
Its value is 86.4 Relative %.

What about the “PS20 remaining (Relative %)” value ([2]; [HP-β-CD]/[PS20] wt/wt ratio 25 (mole ratio 21.8), PPL 4.5 hours) of the same molecule?
The value was 90.3 Relative %.

And the “PS20 remaining (Relative %)” value ([2]; [HP-β-CD]/[PS20] wt/wt ratio 37.5 (mole ratio 32.6), PPL 4.5 hours)?
The value was 106.7 Relative %.

And the “PS20 remaining (Relative %)” value ([2]; [HP-β-CD]/[PS20] wt/wt ratio 50 (mole ratio 43.5), PPL 4.5 hours)?
Its value is 98.6 Relative %.

What about the “PS20 remaining (Relative %)” value ([2]; [HP-β-CD]/[PS20] wt/wt ratio 100 (mole ratio 87.0), PPL 4.5 hours) of the same molecule?
Its value is 93.9 Relative %.

What about the “PS20 remaining (Relative %)” value ([2]; [HP-β-CD]/[PS20] wt/wt ratio 150 (mole ratio 130.5), PPL 4.5 hours) of the same molecule?
The value was 108.3 Relative %.

What about the “PS20 remaining (Relative %)” value ([2]; [HP-β-CD]/[PS20] wt/wt ratio 250 (mole ratio 217.6), PPL 4.5 hours) of the same molecule?
Its value is 101.9 Relative %.

And the “PS20 remaining (Relative %)” value ([2]; [HP-β-CD]/[PS20] wt/wt ratio 750 (mole ratio 652.7), PPL 4.5 hours)?
Its value is 104.2 Relative %.

What about the “PS20 remaining (Relative %)” value ([2]; [HP-β-CD]/[PS20] wt/wt ratio 1000 (mole ratio 870.2), PPL 4.5 hours) of the same molecule?
The value was 104.3 Relative %.

What about the “PS20 remaining (Relative %)” value ([2]; [HP-β-CD]/[PS20] wt/wt ratio 3000 (mole ratio 2610.6), PPL 4.5 hours) of the same molecule?
The value was 112.4 Relative %.

For “2-hydroxypropyl-γ-cyclodextrin [HP-γ-CD]”, which “inhibitory effect” value [2] is on record?
The value was “able to prevent enzymatic degradation of PS20”.

Which “decrease in PS20” value [2] does the source give for “2-hydroxypropyl-α-cyclodextrin [HP-α-CD]” here?
The value was 1%.

And the “inhibitory effect” value [2]?
Its value is “significant inhibitory effects; also recorded: able to prevent enzymatic degradation of PS20”.
